PubChem BioAssay (NCI)
Converted amounts (≈) assume the structure as drawn.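 Protocol summary: plate cells (96-well), add compound at 5 concentrations, incubate 48 h, interpolate endpoints linearly. The concentration for 50% growth inhibition is given as GI50. The concentration for full growth arrest is given as TGI.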

Assays:
Test in all cases: NCI tumour cell line growth inhibition, 48 h
SN12K1 renal = test system: SN12K1 renal
P388 leukemia = test system: P388 leukemia
P388/ADR leukemia = test system: P388/ADR leukemia

`CSc1ccc(/C=C2\CNC/C(=C\c3ccc(SC)cc3)C2=O)cc1` showed a GI50 (SN12K1 renal) of 15.5 µg/mL (≈ 42.1 µM), a TGI (SN12K1 renal) of 103 µg/mL (≈ 280 µM) and a GI50 (P388 leukemia) of 150 µg/mL (≈ 408 µM). It also gave a TGI (P388 leukemia) of 150 µg/mL (≈ 408 µM), a GI50 (P388/ADR leukemia) of 150 µg/mL (≈ 408 µM) and a TGI (P388/ADR leukemia) of 150 µg/mL (≈ 408 µM).
